The NIST ThermoML archive (doi:10.1021/je700316s)
± gives the expanded uncertainty stated by the source.

Conditions: Liquid; for mass density: 298.15 K, 101.33 kPa, Pycnometric method
[1] = Ebulliometric method (Recirculating still)

mass density	Normal boiling temperature [1]	Normal boiling temperature	SMILES
805.8 ± 0.7 kg/m3	117.70 ± 0.2 °C		CCCCO [butan-1-ol]
785.2 ± 0.7 kg/m3		78.29 ± 0.2 °C	CCO [ethanol]
799.6 ± 0.7 kg/m3	97.06 ± 0.2 °C		CCCO [propan-1-ol]
780.8 ± 0.7 kg/m3	82.2 ± 0.2 °C		CC(C)O [propan-2-ol]
